Columns and labels:
[1] = Metabolic stability in rat liver microsomes assessed as parent compound remaining at 0.5 uM incubated for 10 mins in presence of NADPH by LC-MS/MS analysis; assay type: ADME, Microsome; conditions: read-out: Stability
[2] = biological target: MAP kinase-interacting serine/threonine-protein kinase 1 (Homo sapiens, UniProt Q9BUB5); test: Inhibition of MNK1 (unknown origin)
[3] = biological target: T1, AP2-associated protein kinase 1 (Homo sapiens, UniProt Q2M2I8); test: Inhibition of full length human AAK1 expressed in HEK293F cells assessed as suppression of AP2 phosphorylation measured after 3 hrs by Western blot analysis based cellular assay; assay type: cell-based
T1 sequence (Q2M2I8 whole entry): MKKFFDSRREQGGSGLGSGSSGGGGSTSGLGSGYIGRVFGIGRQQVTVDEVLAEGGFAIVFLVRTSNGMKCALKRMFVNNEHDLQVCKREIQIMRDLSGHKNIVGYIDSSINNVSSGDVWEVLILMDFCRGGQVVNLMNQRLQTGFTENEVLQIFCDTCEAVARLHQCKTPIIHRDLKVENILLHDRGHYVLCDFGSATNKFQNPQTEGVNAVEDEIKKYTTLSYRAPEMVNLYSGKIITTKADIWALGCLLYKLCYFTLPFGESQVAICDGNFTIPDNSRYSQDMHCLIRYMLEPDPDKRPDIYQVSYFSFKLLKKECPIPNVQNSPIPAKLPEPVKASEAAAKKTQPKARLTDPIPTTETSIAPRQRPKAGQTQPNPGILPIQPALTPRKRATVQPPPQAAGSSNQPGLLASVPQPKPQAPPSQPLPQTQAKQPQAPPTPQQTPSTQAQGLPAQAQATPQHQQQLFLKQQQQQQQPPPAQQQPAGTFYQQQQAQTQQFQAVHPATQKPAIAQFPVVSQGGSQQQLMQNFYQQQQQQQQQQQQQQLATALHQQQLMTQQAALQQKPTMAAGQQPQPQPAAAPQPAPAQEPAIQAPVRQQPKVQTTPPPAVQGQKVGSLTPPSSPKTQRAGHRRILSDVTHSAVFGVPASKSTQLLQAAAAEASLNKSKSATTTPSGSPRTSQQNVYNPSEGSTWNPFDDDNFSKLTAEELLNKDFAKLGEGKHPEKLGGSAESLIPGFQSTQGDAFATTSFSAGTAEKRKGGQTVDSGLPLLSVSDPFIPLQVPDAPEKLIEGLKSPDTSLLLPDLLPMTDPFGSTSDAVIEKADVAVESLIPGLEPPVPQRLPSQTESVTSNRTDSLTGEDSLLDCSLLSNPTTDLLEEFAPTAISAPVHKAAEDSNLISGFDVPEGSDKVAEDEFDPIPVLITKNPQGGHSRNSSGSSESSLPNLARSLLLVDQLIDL

[4] = Metabolic stability in mouse liver microsomes assessed as parent compound remaining at 0.5 uM incubated for 10 mins in presence of NADPH by LC-MS/MS analysis; assay type: ADME, Microsome; conditions: liver microsomes, read-out: Stability
[5] = biological target: Protein kinase C beta type (Homo sapiens, UniProt P05771); test: Inhibition of PKCb2 (unknown origin)
[6] = biological target: Aurora kinase C (Homo sapiens, UniProt Q9UQB9); test: Inhibition of AURC (unknown origin)
Aurora kinase C, sequence (Q9UQB9 whole entry): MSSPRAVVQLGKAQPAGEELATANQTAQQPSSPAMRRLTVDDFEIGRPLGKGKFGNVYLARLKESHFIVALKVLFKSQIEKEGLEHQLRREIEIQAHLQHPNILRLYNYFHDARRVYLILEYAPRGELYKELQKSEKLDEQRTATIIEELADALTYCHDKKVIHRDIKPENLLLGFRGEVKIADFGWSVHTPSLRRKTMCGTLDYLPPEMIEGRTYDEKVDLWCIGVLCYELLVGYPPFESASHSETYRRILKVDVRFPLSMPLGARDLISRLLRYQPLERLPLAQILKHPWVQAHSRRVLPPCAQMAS

[7] = biological target: AP2-associated protein kinase 1 (Mus musculus, UniProt Q3UHJ0); test: Displacement of 3H-LP-927443 from AAK1 in C57BL6 mouse brain homogenate assessed as inhibition constant incubated for 1 hr by liquid scintillation counter analysis; assay type: tissue-based
AP2-associated protein kinase 1 (Mus musculus, UniProt Q3UHJ0), sequence (Q3UHJ0 whole entry): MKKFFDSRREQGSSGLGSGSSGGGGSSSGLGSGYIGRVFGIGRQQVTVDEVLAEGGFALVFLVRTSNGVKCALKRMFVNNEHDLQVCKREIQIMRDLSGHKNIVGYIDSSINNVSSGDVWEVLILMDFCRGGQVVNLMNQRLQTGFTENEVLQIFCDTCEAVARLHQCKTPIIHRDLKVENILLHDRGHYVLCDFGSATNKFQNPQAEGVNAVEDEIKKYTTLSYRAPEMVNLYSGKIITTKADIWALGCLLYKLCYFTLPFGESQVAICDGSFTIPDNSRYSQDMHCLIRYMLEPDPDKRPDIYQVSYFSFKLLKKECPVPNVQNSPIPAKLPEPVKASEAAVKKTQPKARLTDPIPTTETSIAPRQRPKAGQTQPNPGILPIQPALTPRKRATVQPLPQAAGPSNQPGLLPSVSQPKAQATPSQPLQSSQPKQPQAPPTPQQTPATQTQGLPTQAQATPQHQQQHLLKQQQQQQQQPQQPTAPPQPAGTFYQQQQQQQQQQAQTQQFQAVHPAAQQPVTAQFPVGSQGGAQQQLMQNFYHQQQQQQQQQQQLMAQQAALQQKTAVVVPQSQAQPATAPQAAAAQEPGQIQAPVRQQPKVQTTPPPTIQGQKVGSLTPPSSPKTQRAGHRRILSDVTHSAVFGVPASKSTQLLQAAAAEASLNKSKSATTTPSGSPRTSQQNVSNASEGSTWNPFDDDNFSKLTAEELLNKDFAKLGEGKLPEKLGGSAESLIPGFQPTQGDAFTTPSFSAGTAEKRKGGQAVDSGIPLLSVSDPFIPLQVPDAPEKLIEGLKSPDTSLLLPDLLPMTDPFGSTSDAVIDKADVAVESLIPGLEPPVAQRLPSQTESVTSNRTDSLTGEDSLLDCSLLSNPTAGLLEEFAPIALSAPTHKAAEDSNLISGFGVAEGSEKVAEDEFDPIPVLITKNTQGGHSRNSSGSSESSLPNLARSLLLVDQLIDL

[8] = Metabolic stability in human liver microsomes assessed as parent compound remaining at 0.5 uM incubated for 10 mins in presence of NADPH by LC-MS/MS analysis; assay type: ADME, Microsome; conditions: read-out: Stability
[9] = biological target: BMP-2-inducible protein kinase (Homo sapiens, UniProt Q9NSY1); test: Inhibition of BIKE (unknown origin)
BMP-2-inducible protein kinase, sequence (Q9NSY1 whole entry): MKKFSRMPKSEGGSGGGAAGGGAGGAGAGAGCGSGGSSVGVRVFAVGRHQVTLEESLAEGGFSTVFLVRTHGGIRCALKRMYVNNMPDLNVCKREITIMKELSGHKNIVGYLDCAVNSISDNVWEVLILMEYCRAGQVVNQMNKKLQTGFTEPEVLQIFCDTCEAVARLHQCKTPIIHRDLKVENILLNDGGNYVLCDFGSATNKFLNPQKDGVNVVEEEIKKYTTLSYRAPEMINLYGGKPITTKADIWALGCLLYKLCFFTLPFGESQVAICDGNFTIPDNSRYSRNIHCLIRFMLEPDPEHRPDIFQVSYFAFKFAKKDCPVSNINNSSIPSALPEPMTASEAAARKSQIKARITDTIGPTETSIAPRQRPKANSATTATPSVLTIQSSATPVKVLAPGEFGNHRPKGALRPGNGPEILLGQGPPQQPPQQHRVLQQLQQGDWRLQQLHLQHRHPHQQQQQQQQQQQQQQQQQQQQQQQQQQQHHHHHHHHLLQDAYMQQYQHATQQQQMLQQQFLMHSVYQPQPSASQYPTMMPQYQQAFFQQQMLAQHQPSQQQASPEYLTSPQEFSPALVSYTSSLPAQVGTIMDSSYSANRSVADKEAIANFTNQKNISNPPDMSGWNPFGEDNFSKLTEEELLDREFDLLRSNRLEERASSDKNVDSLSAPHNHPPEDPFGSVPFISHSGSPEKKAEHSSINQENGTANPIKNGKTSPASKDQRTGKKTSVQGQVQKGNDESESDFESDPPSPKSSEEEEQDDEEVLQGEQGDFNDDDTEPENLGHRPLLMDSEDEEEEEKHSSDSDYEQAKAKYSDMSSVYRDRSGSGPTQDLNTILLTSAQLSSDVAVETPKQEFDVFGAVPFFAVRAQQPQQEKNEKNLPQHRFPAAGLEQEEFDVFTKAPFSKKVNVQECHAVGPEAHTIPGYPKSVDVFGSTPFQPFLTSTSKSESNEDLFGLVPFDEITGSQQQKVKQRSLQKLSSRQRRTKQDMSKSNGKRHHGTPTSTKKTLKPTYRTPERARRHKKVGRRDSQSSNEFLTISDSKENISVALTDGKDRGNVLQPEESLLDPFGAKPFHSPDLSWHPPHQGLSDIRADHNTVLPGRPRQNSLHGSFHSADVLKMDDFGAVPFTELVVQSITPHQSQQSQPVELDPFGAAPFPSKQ

[10] = biological target: T1, AP2-associated protein kinase 1; test: Inhibition of bacterially expressed GST-Xa-tagged human AAK1 using 5-FAM-labelled Aha-KEEQSQITSQVTGQIGWR-NH2 peptide as substrate incubated for 3 hrs in presence of ATP by electrophoretic analysis
[11] = biological target: Citron Rho-interacting kinase (Homo sapiens, UniProt O14578); test: Inhibition of CRIK (unknown origin)
[12] = biological target: Myosin light chain kinase 2, skeletal/cardiac muscle (Homo sapiens, UniProt Q9H1R3); test: Inhibition of MYLK2 (unknown origin)
Myosin light chain kinase 2, skeletal/cardiac muscle, sequence (Q9H1R3 whole entry): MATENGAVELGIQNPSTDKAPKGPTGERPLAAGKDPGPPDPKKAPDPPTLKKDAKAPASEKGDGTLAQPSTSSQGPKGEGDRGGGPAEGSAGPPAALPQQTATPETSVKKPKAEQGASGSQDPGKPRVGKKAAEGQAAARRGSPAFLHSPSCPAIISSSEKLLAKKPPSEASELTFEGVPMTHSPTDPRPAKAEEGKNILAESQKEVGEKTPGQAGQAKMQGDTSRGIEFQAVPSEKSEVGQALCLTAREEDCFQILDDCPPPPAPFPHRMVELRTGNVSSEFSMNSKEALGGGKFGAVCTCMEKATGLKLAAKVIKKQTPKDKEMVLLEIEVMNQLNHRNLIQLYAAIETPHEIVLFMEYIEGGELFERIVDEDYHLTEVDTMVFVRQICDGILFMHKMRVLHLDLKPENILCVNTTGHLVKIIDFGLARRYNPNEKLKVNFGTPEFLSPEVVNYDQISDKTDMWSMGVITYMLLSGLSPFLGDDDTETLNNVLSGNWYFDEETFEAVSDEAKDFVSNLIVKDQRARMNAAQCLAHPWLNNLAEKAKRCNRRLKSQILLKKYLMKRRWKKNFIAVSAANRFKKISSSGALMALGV

[13] = Cardiotoxicity in aortic ring (unknown origin) assessed as relaxation of phenylephrine induced aortic ring contraction at 10 uM incubated for 1 hr; assay type: toxicity, tissue-based, Aorta; parameters: scale not given: the % may be the effect or the level left; conditions: human
[14] = biological target: Cytochrome P450 3A4 (Homo sapiens, UniProt P08684); test: Inhibition of CYP3A4 (unknown origin) incubated for 10 mins in presence of NADPH by LC-MS/MS analysis; assay type: ADME
Cytochrome P450 3A4, sequence (P08684 whole entry): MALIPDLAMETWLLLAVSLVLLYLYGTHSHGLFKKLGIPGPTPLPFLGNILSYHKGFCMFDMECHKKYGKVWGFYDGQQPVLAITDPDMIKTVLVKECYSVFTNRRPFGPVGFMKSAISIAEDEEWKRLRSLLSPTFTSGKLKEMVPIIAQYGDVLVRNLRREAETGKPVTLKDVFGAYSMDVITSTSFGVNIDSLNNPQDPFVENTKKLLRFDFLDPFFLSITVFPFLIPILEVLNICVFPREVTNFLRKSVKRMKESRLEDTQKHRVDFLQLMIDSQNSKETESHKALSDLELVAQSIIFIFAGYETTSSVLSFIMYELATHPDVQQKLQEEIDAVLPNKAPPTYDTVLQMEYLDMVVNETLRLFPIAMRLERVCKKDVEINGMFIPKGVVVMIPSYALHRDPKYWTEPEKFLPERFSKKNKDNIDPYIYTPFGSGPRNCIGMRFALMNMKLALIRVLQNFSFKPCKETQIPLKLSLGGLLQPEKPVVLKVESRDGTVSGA

[15] = Inhibition of IGFR (unknown origin); parameters: species or system Homo sapiens

MAP kinase-interacting serine/threonine-protein kinase 1, sequence (Q9BUB5 whole entry): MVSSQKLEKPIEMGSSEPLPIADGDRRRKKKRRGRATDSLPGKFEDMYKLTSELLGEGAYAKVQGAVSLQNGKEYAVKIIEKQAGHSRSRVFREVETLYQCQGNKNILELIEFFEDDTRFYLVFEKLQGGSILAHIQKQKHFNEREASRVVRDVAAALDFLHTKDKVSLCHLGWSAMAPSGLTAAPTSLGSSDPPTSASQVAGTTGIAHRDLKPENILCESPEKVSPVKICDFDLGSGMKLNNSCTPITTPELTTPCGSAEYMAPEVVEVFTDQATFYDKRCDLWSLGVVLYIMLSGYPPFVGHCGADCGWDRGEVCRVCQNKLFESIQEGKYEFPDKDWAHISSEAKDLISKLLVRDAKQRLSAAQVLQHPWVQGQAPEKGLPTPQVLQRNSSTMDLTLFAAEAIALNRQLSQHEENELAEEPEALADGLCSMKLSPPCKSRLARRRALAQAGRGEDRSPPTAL

remaining at 10 min, 0.5 µM [1]	IC50 [2]	IC50 [3]	remaining at 10 min, 0.5 µM [4]	IC50 [5]	IC50 [6]	Ki [7]	remaining at 10 min, 0.5 µM [8]	IC50 [9]	IC50 [10]	IC50 [11]	IC50 [12]	IC50 [14]	IC50 [15]	Structure (SMILES)	Activity [13]
81%	250 nM	0.9 nM	76%	1600 nM	540 nM	0.18 nM	84%	180 nM	0.5 nM	750 nM	350 nM	> 20000 nM	–	Cc1cc(-c2cc(C(F)F)c(OC[C@@](C)(N)CC(C)C)cn2)ccn1	85%
93%	490 nM	2.7 nM	93%	–	–	–	92%	260 nM	0.8 nM	–	–	> 20000 nM	1700 nM	CC(C)C[C@](C)(N)COc1cnc(-c2ccnc(Cl)c2)cc1C(F)F	81%

— ChEMBL document CHEMBL5154787 (J Med Chem, 2022)
